The nature of test [1]: DPPH radical-scavenging ability. Type of test: biochemical. As to the method:
DPPH [[…]] is a free-radical compound. […] Accordingly, antioxidant activity can be compared from the ratio of decolorized DPPH radicals. After mixing 50 μL of a 0.36 mM DPPH solution and 50 μL of a test substance dissolved in ethanol at 1:1 and conducting reaction at room temperature in the dark for 30 minutes, absorbance was measured at 540 nm. The DPPH radical-scavenging ability of Example 1, Comparative Example 1 and Comparative Example 2 of different darae species at different concentrations was calculated from the measured absorbance.
(DPPH is a stable violet radical that fades when it is reduced.)

Test [2] can be described thus: ABTS radical-scavenging ability. The class given is biochemical. As to the method: After dissolving 7.4 mM 2,2-azino-bis(3-ethylbenzthiazoline-6-sulfonic acid) and 2.6 mM potassium persulfate respectively in distilled water and mixing at 1:1, ABTS^+ is formed by conducting reaction at room temperature in the dark for 24 hours. 24 hours later, the ABTS solution was diluted to purified water to adjust absorbance at 732 nm to 0.7. Then, after adding 10 μL of a test substance to 190 μL of the ABTS solution and conducting reaction in the dark for 10 minutes, absorbance was measured at 732 nm. The ABTS radical-scavenging ability of Example 1, Comparative Example 1 and Comparative Example 2 of different darae species at different concentrations was calculated from the measured absorbance.

`O=C1O[C@H]([C@@H](O)CO)C(O)=C1O` [L-Ascorbic acid]: in test [1], the “DPPH radical-scavenging ability IC50” value is 30 ± 10 µg/mL. On to `Cc1c(C)c2c(c(C)c1O)CCC(C)(C(=O)O)O2` (centres unmarked) [Trolox], for which the “ABTS radical-scavenging ability IC50” value in test [2] amounted to 100 ± 10 µg/mL.

(Values after patent US20220193163A1, “COMPOSITION COMPRISING ACTINIDIA POLYGAMA EXTRACT FOR ALLEVIATING SKIN DAMAGE OR MOISTURIZING SKIN” (G&P BIOSCIENCE CO., LTD., priority 2019, published 2022).)
